# In PMC4259414, “HS-133, a novel fluorescent phosphatidylinositol 3-kinase inhibitor as a potential imaging and anticancer agent for targeted therapy” (Oncotarget, 2014):
# What was measured:
# T47D cells = assay: cell viability MTT assay, T47D; assay type: cell-based; conditions: Homo sapiens, 48 h, read-out: IC50, cell growth inhibition
# Experimental: To determine whether HS-133 can function as a novel anticancer compound, we tested the ability of this compound to inhibit the growth of breast cancer cell lines (SkBr3, T47D, and MCF-7) using an MTT assay. The cells were exposed to various concentrations (0.5–50 μM) of HS-133 for 48 h. As shown in Fig. 3A-C, HS-133 inhibited the growth of all three breast cancer cell lines in a dose-dependent manner.
# Cell viability was performed by an MTT assay. Briefly, the SkBr3, T47D, and MCF-7 cells were plated at a density of 1-5 × 10^3 cells/well in a 96-well plate for 48 h. The medium was removed, and the cells were treated with either DMSO as control or various concentrations of HS-133. The final concentration of DMSO in the medium was ≤ 0.1% (v/v). After the cells were incubated for 48 h, 20 μl of MTT solutions (2 mg/ml) was added to each well for another 4 h at 37°C. The formazan crystals that formed were dissolved in DMSO (200 μl/well) via constant shaking for 5 min. The plate was then read on a microplate reader at 540 nm. Three replicate wells were used for each analysis. The median inhibitory concentration (IC50, defined as the drug concentration at which cell growth was inhibited by 50%) was assessed from the dose-response curves.
# SkBr3 xenograft = assay: SkBr3 tumor xenograft study; assay type: in vivo, BALB/c nude mice
# Experimental: We examined the effects of HS-133 using athymic BALB/c nude mice implanted with the SkBr3 cells. HS-133 was injected intratumorally 2 times per week with a dose of 5 mg/kg when tumors reached an average volume of 50–100 mm^3. […] The average tumor volume of HS-133 treated mice was reduced by about 50% compared to that of control mice (Fig. 8D). To assess the general toxicity, we also measured the body weight change in tumor-bearing mice.
# To establish SkBr3 tumor xenograft in mice, the SkBr3 cell line was grown in a culture, detached by trypsinization, washed and resuspended in PBS. Six-week old athymic BALB/c nude mice (Central Lab. Animal Inc. Seoul, Korea) were injected with 5 × 10^6 cells in the right flank of each mouse to initiate tumor growth. After reaching a tumor volume of 50–100 mm^3, mice were randomly divided into two groups, each having six mice. Mice in the control group were fed with a 0.2 mL vehicle (DMSO:PEG400:saline = 5:50:45) by oral gavage daily and the second group with 10 mg/kg dose of HS-133 in 0.2 mL daily for 21 days. For intratumoral administration, HS-133 was injected intratumorally with 2 times per week with a dose of 5 mg/kg when tumors reached an average volume of 50–100 mm^3. The body weight and tumor size were recorded twice per week. The tumor size was calculated by 0.5 × long axis × (short axis) ^2. Animal care and experimental procedures were conducted in accordance with the Guide for Animal Experiments by the Korean Academy of Medical Sciences, and the protocols used to this study were approved by the Institutional Animal Care and Use Committee in Inha University Hospital (Approval No. 110802-105).
smiles,measurement,setting,value
"CC(=O)Nc1ccc(-c2nc3c(c(=O)n(C)c(=O)n3C)n2-c2cccc(F)c2)cc1 [HS-133, N-(4-(7-(3-Fluorophenyl)-1,3-dimethyl-2,6-dioxo-2,3,6,7-tetrahydro-1H-purin-8-yl)phenyl) acetamide]",IC50,T47D cells,9.4 µM
same,tumor volume and weight,"SkBr3 xenograft; intratumoral 5 mg/kg, 2 times per week, 19 days",remarkably reduced
same,reduction of average tumor volume compared to control mice,SkBr3 xenograft; oral 10 mg/kg daily for 21 days,about 50%
same,body weight change in tumor-bearing mice,"SkBr3 xenograft; same dose, SkBr3 xenograft mice",no significant change
